Source: paper PMC10018608 (Signal Transduction and Targeted Therapy, 2023)
Where two headings read alike, the source gives them in different places.

Experiments:
in vitro [1] = format: cell-based; details: 72 h
Description: Cells were seeded and grown in 96 well plates overnight. Then various concentrations of compounds in fresh medium were added and incubated for 72 h. Using MTT (Sigma) assay to determine the cell viability.

various human proteases = assay: Mammalian proteases activity assay (text summary of the panel); format: biochemical; details: tested various human proteases
Description: The mammalian proteases activity assay was analyzed using the assay kit (Biovision, USA) in triplicate by following manufacturer’s manual.

[2] = ICR Mice
[3] = SD rats
[4] = Beagle Dog, i.v. (1 mg/kg)
[5] = Monkey
in vitro [6] = format: in vitro ADME; details: human, microsomes, HLM 0.5 mg/mL, 1 μM
in vivo [7] = details: male, cynomolgus monkey
MERS-CoV = assay: microbe, parasite or virus in culture; format: cell-based; details: Middle East respiratory syndrome-related coronavirus, VeroE6/TMPRSS2, read-out: EC50 (plaque reduction)
hERG channel = hERG channel (Homo sapiens, UniProt Q12809); assay: cell-based
Sequence of hERG channel (Q12809 whole entry): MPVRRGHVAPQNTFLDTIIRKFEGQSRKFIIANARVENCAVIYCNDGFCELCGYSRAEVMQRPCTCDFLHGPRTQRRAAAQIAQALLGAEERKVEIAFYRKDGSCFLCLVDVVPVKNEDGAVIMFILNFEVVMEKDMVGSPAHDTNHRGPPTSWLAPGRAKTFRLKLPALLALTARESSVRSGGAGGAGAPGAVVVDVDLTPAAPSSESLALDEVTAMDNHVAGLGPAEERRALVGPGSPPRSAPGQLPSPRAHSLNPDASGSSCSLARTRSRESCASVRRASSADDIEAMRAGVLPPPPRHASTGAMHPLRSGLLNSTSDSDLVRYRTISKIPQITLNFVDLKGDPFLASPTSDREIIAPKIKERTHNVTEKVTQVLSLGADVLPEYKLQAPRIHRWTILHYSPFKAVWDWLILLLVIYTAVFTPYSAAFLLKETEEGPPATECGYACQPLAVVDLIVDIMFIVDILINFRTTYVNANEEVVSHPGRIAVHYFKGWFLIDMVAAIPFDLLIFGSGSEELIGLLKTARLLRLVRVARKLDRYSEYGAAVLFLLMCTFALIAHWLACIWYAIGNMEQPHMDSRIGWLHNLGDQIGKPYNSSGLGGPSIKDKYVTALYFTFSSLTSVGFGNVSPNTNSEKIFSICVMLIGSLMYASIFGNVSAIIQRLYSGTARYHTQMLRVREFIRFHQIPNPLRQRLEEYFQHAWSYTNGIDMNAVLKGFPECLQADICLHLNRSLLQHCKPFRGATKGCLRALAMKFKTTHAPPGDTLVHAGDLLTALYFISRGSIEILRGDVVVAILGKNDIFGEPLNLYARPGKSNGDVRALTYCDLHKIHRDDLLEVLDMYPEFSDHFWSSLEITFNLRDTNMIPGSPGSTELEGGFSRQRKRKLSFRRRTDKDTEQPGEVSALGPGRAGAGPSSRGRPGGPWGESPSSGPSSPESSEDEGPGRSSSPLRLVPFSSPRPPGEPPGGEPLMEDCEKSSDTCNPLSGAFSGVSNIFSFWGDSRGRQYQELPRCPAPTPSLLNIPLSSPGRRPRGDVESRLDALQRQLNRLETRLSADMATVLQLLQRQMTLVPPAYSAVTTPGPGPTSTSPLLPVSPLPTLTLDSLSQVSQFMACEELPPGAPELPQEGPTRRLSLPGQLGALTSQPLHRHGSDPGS

CYP2C9 = molecular target: T1, CYP2C9 (Homo sapiens, UniProt P11712); assay: biochemical; format: in vitro ADME; details: CYP2C9 (Diclofenac), HLM
T1 construct: Add 400 μL 0.2 mg/mL HLM; from tissue; host or cells: human liver microsomes (HLM)
T1 sequence (P11712 whole entry): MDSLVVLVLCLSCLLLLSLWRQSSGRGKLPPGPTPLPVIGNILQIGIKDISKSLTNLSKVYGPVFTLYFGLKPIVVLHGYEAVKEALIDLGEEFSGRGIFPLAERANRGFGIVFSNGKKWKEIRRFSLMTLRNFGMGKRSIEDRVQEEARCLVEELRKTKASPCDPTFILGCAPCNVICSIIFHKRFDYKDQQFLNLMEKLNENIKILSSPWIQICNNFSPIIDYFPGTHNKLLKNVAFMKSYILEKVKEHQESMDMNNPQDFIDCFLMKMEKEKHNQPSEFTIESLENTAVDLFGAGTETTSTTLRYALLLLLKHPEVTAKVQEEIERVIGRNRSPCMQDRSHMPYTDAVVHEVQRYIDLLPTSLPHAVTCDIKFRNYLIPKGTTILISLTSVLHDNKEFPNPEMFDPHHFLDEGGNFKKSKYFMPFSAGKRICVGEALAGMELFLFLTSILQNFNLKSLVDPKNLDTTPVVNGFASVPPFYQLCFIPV
Description: (§1) Preheat 0.1 M pH 7.4 K/Mg-buffer at 37 °C. The reference inhibitors for this assay are α-Naphthoflavone (1A2), Ticlopidine (2B6), Montelukast (2C8), Sulfaphenazole (2C9), Omeprazole (2C19), Quinidine (2D6), Ketoconazole (3A4). Test compound and reference inhibitors were dissolved in ACN. NADPH cofactor was dissolved in K/Mg-buffer. Each CYP450 isoform was prepared 2 mL substrate (1A2: Phenacetin, 2B6: Amfebutamone HCl, 2C8: Paclitaxel, 2C9: Diclofenac, 2C19: S-Mephenytoin, 2D6: Dextromethorphan, 3A4: Midazolam and Testosterone). Add 400 μL 0.2 mg/mL HLM and 2 μL of test compound set (serially diluted) to the assay wells. And then add 30 μL HLM-compound mixture and 15 μL substrate solution in the 96-well assay plate on ice. Then incubate the 96-well assay plate at 37 °C for 5 min. Add 15 µL of pre-warmed (37 °C) 8 mM NADPH solution to initiate the enzyme reaction. Incubate the assay plate at 37 °C for 5–45 min and quench the reaction. Then collect samples for LC/MS analysis.

CYP2C19 = molecular target: T2, CYP2C19 (Homo sapiens, UniProt P33261); assay: biochemical; format: in vitro ADME; details: CYP2C19 (S-Mephenytoin), HLM
T2 construct: Add 400 μL 0.2 mg/mL HLM; from tissue; host or cells: human liver microsomes (HLM)
T2 sequence (P33261 whole entry): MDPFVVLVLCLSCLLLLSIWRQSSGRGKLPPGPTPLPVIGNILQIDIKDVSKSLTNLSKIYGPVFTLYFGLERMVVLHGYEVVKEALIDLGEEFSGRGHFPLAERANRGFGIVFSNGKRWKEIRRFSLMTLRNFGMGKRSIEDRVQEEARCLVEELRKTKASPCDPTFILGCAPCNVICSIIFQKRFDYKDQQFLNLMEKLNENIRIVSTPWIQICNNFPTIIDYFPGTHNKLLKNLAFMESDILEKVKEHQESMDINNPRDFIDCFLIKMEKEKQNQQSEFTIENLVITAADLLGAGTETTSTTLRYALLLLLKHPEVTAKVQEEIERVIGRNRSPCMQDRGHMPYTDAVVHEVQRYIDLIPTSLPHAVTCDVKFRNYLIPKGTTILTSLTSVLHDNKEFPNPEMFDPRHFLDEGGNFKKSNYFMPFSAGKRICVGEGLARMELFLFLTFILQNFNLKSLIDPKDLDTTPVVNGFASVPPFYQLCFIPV
Description: as §1

CYP2D6 = molecular target: T3, CYP2D6 (Homo sapiens, UniProt P10635); assay: biochemical; format: in vitro ADME; details: CYP2D6 (Dextromethorphan), HLM
T3 construct: Add 400 μL 0.2 mg/mL HLM; from tissue; host or cells: human liver microsomes (HLM)
T3 sequence (P10635 whole entry): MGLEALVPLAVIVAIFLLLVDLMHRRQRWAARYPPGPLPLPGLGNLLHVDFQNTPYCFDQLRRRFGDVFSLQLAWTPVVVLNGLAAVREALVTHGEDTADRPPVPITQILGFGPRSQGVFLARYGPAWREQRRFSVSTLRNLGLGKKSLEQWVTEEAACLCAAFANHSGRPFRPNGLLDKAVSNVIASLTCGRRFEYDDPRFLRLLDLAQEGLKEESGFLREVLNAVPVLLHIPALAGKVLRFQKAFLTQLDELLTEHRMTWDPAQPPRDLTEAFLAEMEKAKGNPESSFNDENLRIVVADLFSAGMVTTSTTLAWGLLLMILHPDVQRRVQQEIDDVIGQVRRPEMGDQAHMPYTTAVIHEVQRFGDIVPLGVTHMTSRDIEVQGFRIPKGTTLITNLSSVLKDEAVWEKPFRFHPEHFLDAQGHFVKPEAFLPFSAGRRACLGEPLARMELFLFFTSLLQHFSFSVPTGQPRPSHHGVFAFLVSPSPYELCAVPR
Description: as §1

CYP1A2 = molecular target: T4, CYP1A2 (Homo sapiens, UniProt P05177); assay: biochemical; format: in vitro ADME; details: CYP1A2 (Phenacetin), HLM
T4 construct: Add 400 μL 0.2 mg/mL HLM; from tissue; host or cells: human liver microsomes (HLM)
T4 sequence (P05177 whole entry): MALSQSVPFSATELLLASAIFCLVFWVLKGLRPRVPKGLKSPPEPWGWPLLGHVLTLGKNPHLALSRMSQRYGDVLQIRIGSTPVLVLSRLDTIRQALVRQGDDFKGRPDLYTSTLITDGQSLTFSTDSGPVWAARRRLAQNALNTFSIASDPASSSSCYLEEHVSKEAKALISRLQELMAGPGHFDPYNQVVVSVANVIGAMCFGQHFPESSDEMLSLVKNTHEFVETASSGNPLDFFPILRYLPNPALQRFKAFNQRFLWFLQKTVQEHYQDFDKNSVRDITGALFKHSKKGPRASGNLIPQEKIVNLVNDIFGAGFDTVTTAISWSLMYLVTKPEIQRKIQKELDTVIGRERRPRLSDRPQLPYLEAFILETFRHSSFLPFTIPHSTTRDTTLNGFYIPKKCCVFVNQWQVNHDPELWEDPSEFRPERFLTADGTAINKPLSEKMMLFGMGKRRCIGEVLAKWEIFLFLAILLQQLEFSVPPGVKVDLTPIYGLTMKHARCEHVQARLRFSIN
Description: as §1

CYP2B6 = molecular target: T5, CYP2B6 (Homo sapiens, UniProt P20813); assay: biochemical; format: in vitro ADME; details: CYP2B6 (Bupropion), HLM
T5 construct: Add 400 μL 0.2 mg/mL HLM; from tissue; host or cells: human liver microsomes (HLM)
T5 sequence (P20813 whole entry): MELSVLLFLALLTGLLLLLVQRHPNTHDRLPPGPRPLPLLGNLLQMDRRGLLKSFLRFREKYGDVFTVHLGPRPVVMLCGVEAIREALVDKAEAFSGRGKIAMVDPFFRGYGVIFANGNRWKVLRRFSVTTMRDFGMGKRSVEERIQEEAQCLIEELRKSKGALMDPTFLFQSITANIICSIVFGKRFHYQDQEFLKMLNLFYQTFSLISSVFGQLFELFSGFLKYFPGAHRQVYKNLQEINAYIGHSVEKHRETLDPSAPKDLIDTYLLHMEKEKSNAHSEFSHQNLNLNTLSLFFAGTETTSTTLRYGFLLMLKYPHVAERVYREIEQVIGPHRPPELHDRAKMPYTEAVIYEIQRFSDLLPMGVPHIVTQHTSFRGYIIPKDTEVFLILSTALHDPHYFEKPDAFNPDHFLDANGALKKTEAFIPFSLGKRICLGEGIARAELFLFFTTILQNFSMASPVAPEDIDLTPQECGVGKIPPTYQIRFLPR
Description: as §1

CYP2C8 = molecular target: T6, CYP2C8 (Homo sapiens, UniProt P10632); assay: biochemical; format: in vitro ADME; details: CYP2C8 (Paclitaxel), HLM
T6 construct: Add 400 μL 0.2 mg/mL HLM; from tissue; host or cells: human liver microsomes (HLM)
T6 sequence (P10632 whole entry): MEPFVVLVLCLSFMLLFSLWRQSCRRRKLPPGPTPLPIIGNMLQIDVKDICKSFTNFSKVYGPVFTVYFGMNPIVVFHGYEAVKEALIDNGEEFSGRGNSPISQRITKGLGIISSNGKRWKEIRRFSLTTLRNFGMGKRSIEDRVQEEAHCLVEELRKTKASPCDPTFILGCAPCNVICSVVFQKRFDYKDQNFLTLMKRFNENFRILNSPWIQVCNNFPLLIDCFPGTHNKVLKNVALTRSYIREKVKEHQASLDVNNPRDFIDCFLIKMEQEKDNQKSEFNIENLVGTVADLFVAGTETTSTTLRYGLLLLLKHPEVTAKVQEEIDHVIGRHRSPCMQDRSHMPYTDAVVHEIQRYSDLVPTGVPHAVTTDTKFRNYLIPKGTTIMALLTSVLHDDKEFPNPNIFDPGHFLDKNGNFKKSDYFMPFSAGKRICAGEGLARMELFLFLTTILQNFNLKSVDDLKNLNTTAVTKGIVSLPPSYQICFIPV
Description: as §1

CYP3A4 = molecular target: T7, CYP3A4 (Homo sapiens, UniProt P08684); assay: biochemical; format: in vitro ADME
T7 construct: Add 400 μL 0.2 mg/mL HLM; from tissue; host or cells: human liver microsomes (HLM)
T7 sequence (P08684 whole entry): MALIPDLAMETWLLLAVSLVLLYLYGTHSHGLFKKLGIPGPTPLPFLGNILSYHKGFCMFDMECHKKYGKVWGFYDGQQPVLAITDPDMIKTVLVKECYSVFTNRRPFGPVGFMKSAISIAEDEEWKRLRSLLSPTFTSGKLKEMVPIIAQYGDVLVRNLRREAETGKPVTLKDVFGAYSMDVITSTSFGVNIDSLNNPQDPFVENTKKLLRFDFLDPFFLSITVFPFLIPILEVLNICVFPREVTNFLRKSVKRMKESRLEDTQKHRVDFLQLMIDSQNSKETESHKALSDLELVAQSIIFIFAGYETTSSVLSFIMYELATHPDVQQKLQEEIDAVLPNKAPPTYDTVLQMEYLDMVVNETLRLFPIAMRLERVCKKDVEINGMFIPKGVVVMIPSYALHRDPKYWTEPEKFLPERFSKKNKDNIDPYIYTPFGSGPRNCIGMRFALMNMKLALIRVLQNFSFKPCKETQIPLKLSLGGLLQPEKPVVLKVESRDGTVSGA
Description: as §1

in vivo [8] = details: male, Sprague-Dawley, rat
[9] = tested on: SARS-CoV-2 Omicron BA.2 sublineage; format: in vivo, K18-hACE2 transgenic mice

COC[C@@H](NC(=O)C1CCCC(F)(F)C1)C(=O)N[C@H](Cc1ccccc1)C(=O)C(=O)NCc1nccs1 (stereo partly drawn) [SY110, N-((R)-1-(((R)-3,4-dioxo-1-phenyl-4-((thiazol-2-ylmethyl)amino)butan-2-yl)amino)-3-methoxy-1-oxopropan-2-yl)-3,3-difluorocyclohexane-1-carboxamide]
CC50 (in vitro [1]; African green monkey, VeroE6, MTT): > 500 µM | CC50 (in vitro [1]; human, BEAS-2B, MTT): > 500 µM | CC50 (in vitro [1]; human, HUVEC, MTT): > 500 µM | IC50 (various human proteases): > 100 µM | no observed adverse effect level (14 days repeated dose toxicity study, text says rats): 600 mg/kg | Results, repeated dose two-week toxicity study (mice, p.o., 600 mg/kg, twice daily, 14 days): without death, significant body weight change, or pathological changes in the heart, liver, lung, kidney, or spleen | MTRlast ([2]; i.v. (1 mg/kg)): 0.17 ± 0.03 h | Vzobs ([2]; i.v. (1 mg/kg)): 4.27 ± 2.29 L/kg | MTRlast ([2]; p.o. (150 mg/kg)): 3.62 ± 1.18 h | MTRlast ([3]; i.v. (1 mg/kg)): 2.34 ± 0.22 h | Vzobs ([3]; i.v. (1 mg/kg)): 3.03 ± 0.71 L/kg | MTRlast ([3]; p.o. (10 mg/kg)): 6.60 ± 0.89 h | MTRlast [4]: 0.47 ± 0.05 h | MTRlast ([5]; i.v. (1 mg/kg)): 0.90 ± 0.18 h | MTRlast ([5]; p.o. (10 mg/kg)): 4.71 ± 0.89 h | remaining at 0 h (in vitro [6]; 0 min, Mean, read-out: Percent Remaining (%) 0 min): 100% | remaining at 5 min (in vitro [6]; 5 min, Mean, read-out: Percent Remaining (%) 5 min): 80.7% | remaining at […] (in vitro [6]; 15 min, Mean, read-out: Percent Remaining (%) 15 min): 65.4% | remaining at 0.5 h (in vitro [6]; 30 min, Mean, read-out: Percent Remaining (%) 30 min): 48% | remaining at 0.75 h (in vitro [6]; 45 min, Mean, read-out: Percent Remaining (%) 45 min): 37.2% | remaining at 1 h (in vitro [6]; 60 min, Mean, read-out: Percent Remaining (%) 60 min): 29.8% | CLint scaled (in vitro [6]; scaling factor 1254.2): 49.2 mL/min/kg | AUC(0-inf) (in vivo [7]; iv, 1 mg/kg): 506 ± 60.7 ng·h/mL | AUC(0-t) (in vivo [7]; iv, 1 mg/kg): 501 ± 59.9 ng·h/mL | Cmax (in vivo [7]; iv, 1 mg/kg): 567 ± 38.2 ng/mL | Tmax (in vivo [7]; iv, 1 mg/kg): 0.08 h | clearance (in vivo [7]; iv, 1 mg/kg): 33.3 mL/min/kg | half-life (in vivo [7]; iv, 1 mg/kg): 0.73 ± 0.2 h | AUC(0-t) (in vivo [7]; po, 10 mg/kg): 1220 ± 56.8 ng·h/mL | Cmax (in vivo [7]; po, 10 mg/kg): 242 ± 54.2 ng/mL | Tmax (in vivo [7]; po, 10 mg/kg): 2.33 ± 1.53 h | bioavailability (in vivo [7]; po, 10 mg/kg): 24.4% | half-life (in vivo [7]; po, 10 mg/kg): 5.57 ± 1.05 h | EC50 (MERS-CoV): 6.27 µM | IC50 (hERG channel): > 30 µM | IC50 (CYP2C9): > 30 µM | IC50 (CYP2C19): > 30 µM | IC50 (CYP2D6): > 30 µM | IC50 (CYP1A2): > 30 µM | IC50 (CYP2B6): > 30 µM | IC50 (CYP2C8): > 30 µM | IC50 (CYP3A4; CYP3A4 (Midazolam), HLM): > 30 µM | IC50 (CYP3A4; CYP3A4 (Testosterone), HLM): > 30 µM | IC50 (CYP3A4; CYP3A4, text, substrate not stated there): > 30 µM | AUC(0-inf) (in vivo [8]; iv, 1 mg/kg): 2320 ± 592 ng·h/mL | AUC(0-t) (in vivo [8]; iv, 1 mg/kg): 2300 ± 587 ng·h/mL | Cmax (in vivo [8]; iv, 1 mg/kg): 1740 ± 285 ng/mL | Tmax (in vivo [8]; iv, 1 mg/kg): 0.08 h | clearance (in vivo [8]; iv, 1 mg/kg): 7.47 ± 1.67 mL/min/kg | half-life (in vivo [8]; iv, 1 mg/kg): 4.67 ± 0.19 h | AUC(0-inf) (in vivo [8]; po, 10 mg/kg): 20200 ± 2600 ng·h/mL | AUC(0-t) (in vivo [8]; po, 10 mg/kg): 19000 ng·h/mL | Cmax (in vivo [8]; po, 10 mg/kg): 1430 ± 98.5 ng/mL | Tmax (in vivo [8]; po, 10 mg/kg): 4 ± 2 h | bioavailability (in vivo [8]; po, 10 mg/kg): 82.8% | half-life (in vivo [8]; po, 10 mg/kg): 5.16 ± 2.94 h | lung pathology, H&E staining ([9]; mouse, in vivo): only scattered inflammatory cell infiltrates can be occasionally found in the alveolar interstitium | viral N protein expression in the lung tissue ([9]; mouse, in vivo): substantially reduced the viral N protein expression | production of the infectious virus particles in the lung ([9]; plaque assays, therapeutic treatment): effectively suppressed
